{"source": "patent US5069895A", "about": "“Methods for the treatment of alcohol intoxication and dependence” (priority 1989, dated 1991)", "key": {"[1]": {"test_system": "mice", "details": "cited from earlier work; for effect on symptoms of ethanol intoxication: Dar et al. (1985); for intoxicating effect of ethanol: administration over a 10-day period to mice, Dar and Wooles (1986); for ethanol-induced ataxia: pretreated mice, Dar et al. (1987)"}, "[2]": {"test_system": "NG108-15 cells", "assay": "acute effect of ethanol on endogenous cAMP levels", "format": "cell-based", "quoted_text": "NG108-15 cells were grown in defined media as described (Gordon et al. (1986) supra.) to a final density of 12-20×10^6 cells per flask. […] Bars represent means ±SEM, n=4-9."}, "[3]": {"test_system": "S49 wild type cells", "assay": "agonist stimulation of cAMP levels over basal", "experimental": "(§1) S49 wild type (WT) and adenosine transport mutants (80-2A6 and 160-D4) were grown in defined media (11, without phytohemagglutinin) with 1 U/ml ADA for at least 2 weeks. They were then grown in the presence or absence of 100 mM ethanol with or without 1.5 U/ml ADA for 48 hours. Accumulation of adenosine over 5 min was determined by incubating 1.0×10^7 cells/ml in sterilized PBS in the absence or presence of 200 mM ethanol. Extracellular adenosine concentrations were determined as in FIG. 2. Accumulation of adenosine over 24 hours in the absence or presence of 100 mM ethanol was determined as described by Green (1980) supra.. Assays for receptor-stimulated cAMP levels were carried out as in FIG. 3. […] Values represent means ±SEM. Number of determinations in indicated in parentheses."}, "[4]": {"test_system": "C1300 neuroblastoma cells", "details": "endogenously released, overnight culture; cited from earlier work"}, "[5]": {"test_system": "S49 wild type cells", "assay": "receptor-stimulated cAMP levels after chronic ethanol", "format": "cell-based", "details": "for activity at 100000 µM: wild type, 100 mM EtOH 48 hr", "experimental": "as §1"}, "[6]": {"test_system": "NG108-15 cells", "details": "200 mM ethanol, 10 min", "experimental": "NG108-15 cells (5×10^6 cells/well) were incubated with 2 ml of PBS in the presence or absence of 200 mM ethanol for 10 min. Fluorescent derivatives of adenosine were prepared (Green (1980) supra.) and injected onto a reverse-phase HPLC column equilibrated with 1.2 mM KPO4, pH 5 and eluted with a 0-60% methanol gradient. Peak areas were compared with those of known amounts of 1,N^6 -ethenoadenosine."}, "[7]": {"test_system": "adenosine transport in freshly isolated lymphocytes", "details": "lymphocytes from alcoholics vs nonalcoholics, 200 mM ethanol 3 min, uptake at 10 seconds", "quoted_text": "Uptake of [^3 H]-adenosine in freshly isolated lymphocytes from nonalcoholics and actively drinking alcoholics was also measured."}, "[8]": {"test_system": "S49 adenosine transport mutant 80-2A6", "experimental": "as §1"}, "[9]": {"test_system": "S49 wild type cells", "experimental": "as §1"}, "[10]": {"test_system": "S49 adenosine transport mutant 80-2A6", "assay": "cells", "details": "48 h", "experimental": "as §1"}, "[11]": {"test_system": "S49 adenosine transport mutant 160-D4", "assay": "cells", "details": "48 h", "experimental": "as §1"}, "[12]": {"test_system": "cultured lymphocytes", "assay": "cells", "details": "for activation at 100000 µM: Homo sapiens, Lymphocyte, 5 min", "experimental": "Lymphocytes from alcoholics and nonalcoholics were grown in culture for 6 days, and 100 mM ethanol was added for 24 hours. The cells were washed, preincubated for 5 minutes in the absence of ethanol, and then incubated in the absence and presence of 100 mM ethanol for 5 minutes. Extracellular adenosine was measured by HPLC (n=5-7 for alcoholics and nonalcoholics)."}, "[13]": {"details": "read-out: cAMP levels, 1 uM PGE1"}, "[14]": {"details": "read-out: cAMP levels, 100 uM PIA"}}, "note": "Where two headings read alike, the source gives them in different places."}
{"smiles": "OCCN(CCO)c1nc(N2CCCCC2)c2nc(N(CCO)CCO)nc(N3CCCCC3)c2n1", "note": "[Dipyridamole]", "values": [{"measurement": "effect on symptoms of ethanol intoxication", "setting": "[1]", "value": "potentiating effect on certain symptoms of ethanol intoxication"}]}
{"smiles": "CC(C)Cn1c(=O)n(C)c(=O)c2[nH]cnc21", "note": "[IBMX, isobutylmethylxanthine]", "values": [{"measurement": "intoxicating effect of ethanol", "setting": "[1]", "value": "increased"}, {"measurement": "ethanol-induced ataxia", "setting": "[1]", "value": "significant potentiation"}, {"measurement": "effect on ethanol-induced increase in cAMP levels", "setting": "[2]; co-incubation with ethanol 10 min, 1 U/ml ADA or isobutylmethylxanthine", "value": "completely blocked"}]}
{"smiles": "CCCCC[C@H](O)/C=C/[C@H]1[C@H](O)CC(=O)[C@@H]1CCCCCCC(=O)O", "note": "[PGE1]", "values": [{"measurement": "maximal fold induction", "setting": "[3]; Mus musculus, read-out: increase in cAMP levels over basal", "value": "13.5 ± 3.5"}]}
{"smiles": "C[C@H](Cc1ccccc1)Nc1ncnc2c1ncn2[C@@H]1O[C@H](CO)[C@@H](O)[C@H]1O", "note": "[PIA]", "values": [{"measurement": "increase in cAMP levels over basal", "setting": "[3]; maximally-effective concentration", "value": "1.92±0.41", "unit": "fold"}]}
{"smiles": "Nc1ncnc2c1ncn2[C@@H]1O[C@H](CO)[C@@H](O)[C@H]1O", "note": "[adenosine]", "values": [{"measurement": "concentration sufficient to desensitize adenosine receptor-dependent cAMP production", "setting": "[4]", "value": "10 to 20", "unit": "nM"}]}
{"smiles": "Cn1c(=O)c2c(ncn2C)n(C)c1=O", "note": "[caffeine]", "values": [{"measurement": "intoxicating effect of ethanol", "setting": "[1]", "value": "increased"}, {"measurement": "ethanol-induced ataxia", "setting": "[1]", "value": "significant potentiation"}]}
{"smiles": "CCO", "note": "[ethanol]", "values": [{"measurement": "activity at 100000 µM", "setting": "[5]; [13]", "value": "36 ± 6", "unit": "%"}, {"measurement": "activity at 100000 µM", "setting": "[5]; [14]", "value": "65 ± 7", "unit": "%"}, {"measurement": "extracellular adenosine concentration", "setting": "[6]", "value": "37±1.2", "unit": "nM/5×10^6 cells"}, {"measurement": "inhibition of adenosine uptake", "setting": "[7]", "value": "less inhibition by ethanol compared to uptake in cells from nonalcoholics"}, {"measurement": "activation at 200000 µM", "setting": "[2]; Homo sapiens, NG108-15, 10 min, 200 mM ethanol, 10 min, no added agonist, read-out: increase in intracellular cAMP concentration", "value": 60, "unit": "%"}, {"measurement": "extracellular adenosine, EtOH", "setting": "[8]; 80-2A6, 5 min, EtOH 200 mM", "value": 0, "unit": "nM/10^7 cells"}, {"measurement": "extracellular adenosine, EtOH", "setting": "[8]; 80-2A6, 24 hr, EtOH 100 mM", "value": 0, "unit": "nM/10^7 cells"}, {"measurement": "extracellular adenosine, EtOH", "setting": "[9]; 5 min, EtOH 200 nM as printed", "value": "17.6 ± 3.6", "unit": "nM/10^7 cells"}, {"measurement": "extracellular adenosine, EtOH", "setting": "[9]; 24 hr, EtOH 100 nM as printed", "value": "56.7 ± 10.2", "unit": "nM/10^7 cells"}, {"measurement": "activity at 100000 µM", "setting": "[10]; [13]", "value": "82 ± 7", "unit": "%"}, {"measurement": "activity at 100000 µM", "setting": "[10]; [14]", "value": "115 ± 11", "unit": "%"}, {"measurement": "activity at 100000 µM", "setting": "[11]; [13]", "value": "98 ± 7", "unit": "%"}, {"measurement": "activity at 100000 µM", "setting": "[11]; [14]", "value": "94 ± 9", "unit": "%"}, {"measurement": "activation at 100000 µM", "setting": "[12]; read-out: increase in extracellular adenosine on rechallenge, lymphocytes from alcoholics, after chronic ethanol, rechallenge 100 mM ethanol", "value": 73, "unit": "%"}, {"measurement": "activation at 100000 µM", "setting": "[12]; read-out: increase in extracellular adenosine, lymphocytes from alcoholics, 100 mM ethanol 5 min", "value": 37, "unit": "%"}, {"measurement": "activation at 100000 µM", "setting": "[12]; read-out: increase in extracellular adenosine, lymphocytes from nonalcoholics, 100 mM ethanol 5 min", "value": 17, "unit": "%"}, {"measurement": "increase in extracellular adenosine on rechallenge", "setting": "[12]; lymphocytes from nonalcoholics, after 100 mM ethanol 24 hours, rechallenge", "value": "did not increase extracellular adenosine"}]}
{"smiles": "OC[C@H]1O[C@@H](n2cnc3c(O)ncnc32)[C@H](O)[C@@H]1O", "note": "[inosine, reference compound]", "values": [{"measurement": "desensitization of the adenosine receptor", "setting": "[5]; S49 wild type cells exposed 48 hr, data not shown", "value": "did not desensitize the adenosine receptor"}]}
{"smiles": "Cn1c(=O)c2[nH]cnc2n(C)c1=O", "note": "[theophylline]", "values": [{"measurement": "effect on symptoms of ethanol intoxication", "setting": "[1]", "value": "ameliorated certain symptoms of intoxication while having no effect on others"}, {"measurement": "intoxicating effect of ethanol", "setting": "[1]", "value": "appeared to have no effect"}, {"measurement": "ethanol-induced ataxia", "setting": "[1]", "value": "significant potentiation"}]}
